Reference: ChEMBL document CHEMBL1201862, “PubChem BioAssay data set” (2004)
Blank lines part the entries; values can stand above or below the compound they belong to. The source made the active and inactive calls.

Tests used:
[1] = target: T1, Short transient receptor potential channel 4 (Mus musculus, UniProt Q9QUQ5); assay: mouse TRPC4 channel inhibitors, dose response, cell-based, HEK293 TRPC4/mu-opioid, Fluo-4 calcium (AID 434942); format: functional;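 further: potency of inhibitors blocking the TRPC4 calcium response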
T1 sequence (Q9QUQ5 whole entry): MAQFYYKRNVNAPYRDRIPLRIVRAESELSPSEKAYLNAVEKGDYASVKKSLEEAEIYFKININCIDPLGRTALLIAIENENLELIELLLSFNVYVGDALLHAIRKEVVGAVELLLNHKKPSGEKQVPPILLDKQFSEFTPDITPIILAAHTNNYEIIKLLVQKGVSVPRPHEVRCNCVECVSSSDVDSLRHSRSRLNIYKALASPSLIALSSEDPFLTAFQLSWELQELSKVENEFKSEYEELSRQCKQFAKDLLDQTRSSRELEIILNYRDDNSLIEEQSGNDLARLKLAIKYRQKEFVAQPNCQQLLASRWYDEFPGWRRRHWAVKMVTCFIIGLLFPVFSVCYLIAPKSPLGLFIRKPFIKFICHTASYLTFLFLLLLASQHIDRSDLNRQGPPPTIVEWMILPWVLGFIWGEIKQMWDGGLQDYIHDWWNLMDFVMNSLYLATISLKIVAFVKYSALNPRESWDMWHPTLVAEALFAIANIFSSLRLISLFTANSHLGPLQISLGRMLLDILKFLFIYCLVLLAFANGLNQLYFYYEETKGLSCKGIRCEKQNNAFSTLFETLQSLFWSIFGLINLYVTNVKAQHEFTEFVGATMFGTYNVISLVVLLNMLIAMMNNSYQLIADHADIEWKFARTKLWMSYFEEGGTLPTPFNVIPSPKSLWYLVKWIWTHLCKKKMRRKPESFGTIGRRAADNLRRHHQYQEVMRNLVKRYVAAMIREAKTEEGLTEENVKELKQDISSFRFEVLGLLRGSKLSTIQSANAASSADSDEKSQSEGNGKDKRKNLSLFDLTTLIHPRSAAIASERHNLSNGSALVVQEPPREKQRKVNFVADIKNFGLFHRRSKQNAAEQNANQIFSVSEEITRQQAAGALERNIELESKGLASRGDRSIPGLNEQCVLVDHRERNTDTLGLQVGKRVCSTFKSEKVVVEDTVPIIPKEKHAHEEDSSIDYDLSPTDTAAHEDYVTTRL

[2] = target: Melanin-concentrating hormone receptor 1 (Homo sapiens, UniProt Q99705); assay: Late-stage fluorescence-based counterscreen for antagonists of the G-protein coupled receptor 7 (GPR7): cell-based dose response assay to identify antagonists of the melanin-concentrating hormone receptor 1 (MCHR1). [Related pubchem assays (depositor defined):AID1861, AID1880, AID1952, AID2148, AID2251, AID2257, AID485339]; format: functional;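 further: stimulated with 30 nM MCH peptide agonist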
cells [3] = format: functional, cell-based
[4] = target: Peroxisome proliferator-activated receptor gamma/Nuclear receptor corepressor 2 (Homo sapiens, UniProt P37231+Q9Y618); format: functional
[5] = target: T2, Trace amine-associated receptor 1 (Homo sapiens, UniProt Q96RJ0); assay: Fluorescence-based cell-based high throughput dose response assay to identify agonists of the human trace amine associated receptor 1 (TAAR1).; format: functional
T2 sequence (Q96RJ0 whole entry): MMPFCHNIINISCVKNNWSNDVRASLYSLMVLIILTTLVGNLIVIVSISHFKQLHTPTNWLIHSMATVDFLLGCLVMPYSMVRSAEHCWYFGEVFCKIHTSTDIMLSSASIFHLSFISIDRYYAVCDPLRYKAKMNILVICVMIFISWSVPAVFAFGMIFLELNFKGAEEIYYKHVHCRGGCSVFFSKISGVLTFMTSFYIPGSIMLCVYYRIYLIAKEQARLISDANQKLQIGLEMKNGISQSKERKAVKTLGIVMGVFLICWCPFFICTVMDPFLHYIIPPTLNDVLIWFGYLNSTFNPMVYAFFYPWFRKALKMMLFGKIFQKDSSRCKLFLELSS

cells [6] = format: functional, cell-based; remark: listed apart in the source
[7] = target: Photoreceptor-specific nuclear receptor (Homo sapiens, UniProt Q9Y5X4); format: functional;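 further: potency for compounds that break the NR2E3 corepressor complex and count as activators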
[8] = target: T2, Trace amine-associated receptor 1; assay: Counterscreen for agonists of the human trace amine associated receptor 1 (hTAAR1): Fluorescence-based cell-based high throughput dose response assay to identify hTAAR1 agonist that also desensitize TAAR1 receptor response.; format: functional
SUMO-activating enzyme [9] = target: T3, SUMO-activating enzyme (Homo sapiens, UniProt Q9UBT2); assay: SUMOylation inhibitor hit validation, confirmation, SUMOylation inhibitor project, biochemical, AlphaScreen (AID 2018); format: functional
[10] = target: T4, Calpain-2 catalytic subunit (Sus scrofa, UniProt P43367); assay: pig calpain II inhibitor potency, dose response, biochemical, fluorogenic peptide substrate (AID 1420); format: functional
T4 sequence (P43367 whole entry): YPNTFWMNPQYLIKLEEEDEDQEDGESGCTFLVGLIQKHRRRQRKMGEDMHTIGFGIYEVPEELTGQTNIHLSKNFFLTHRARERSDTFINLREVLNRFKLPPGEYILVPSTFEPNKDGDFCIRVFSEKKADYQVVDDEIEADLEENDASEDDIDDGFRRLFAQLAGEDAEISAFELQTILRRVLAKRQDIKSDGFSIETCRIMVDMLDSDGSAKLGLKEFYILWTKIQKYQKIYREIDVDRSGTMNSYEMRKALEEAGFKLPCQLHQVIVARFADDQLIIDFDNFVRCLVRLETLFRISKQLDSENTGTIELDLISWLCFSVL

SUMO-activating enzyme [11] = target: T3, SUMO-activating enzyme; assay: inhibitors of in vitro SUMOylation cascade, primary screen, biochemical, HTRF, uHTS (AID 2006); format: protein-complex assay
[12] = target: Voltage-dependent T-type calcium channel subunit alpha-1H (Homo sapiens, UniProt O95180); format: functional;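 further: channel activity triggered by adding a high calcium stimulation buffer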
Aminopeptidase N = target: T5, Aminopeptidase N (Plasmodium falciparum FcB1/Columbia, UniProt O96935); assay: P. falciparum M1AAP inhibitors, biochemical, fluorogenic H-Leu-NHMec substrate, 1536-well (AID 1445); design: species or system Plasmodium falciparum 3D7, 3D7
T5 sequence (O96935 whole entry): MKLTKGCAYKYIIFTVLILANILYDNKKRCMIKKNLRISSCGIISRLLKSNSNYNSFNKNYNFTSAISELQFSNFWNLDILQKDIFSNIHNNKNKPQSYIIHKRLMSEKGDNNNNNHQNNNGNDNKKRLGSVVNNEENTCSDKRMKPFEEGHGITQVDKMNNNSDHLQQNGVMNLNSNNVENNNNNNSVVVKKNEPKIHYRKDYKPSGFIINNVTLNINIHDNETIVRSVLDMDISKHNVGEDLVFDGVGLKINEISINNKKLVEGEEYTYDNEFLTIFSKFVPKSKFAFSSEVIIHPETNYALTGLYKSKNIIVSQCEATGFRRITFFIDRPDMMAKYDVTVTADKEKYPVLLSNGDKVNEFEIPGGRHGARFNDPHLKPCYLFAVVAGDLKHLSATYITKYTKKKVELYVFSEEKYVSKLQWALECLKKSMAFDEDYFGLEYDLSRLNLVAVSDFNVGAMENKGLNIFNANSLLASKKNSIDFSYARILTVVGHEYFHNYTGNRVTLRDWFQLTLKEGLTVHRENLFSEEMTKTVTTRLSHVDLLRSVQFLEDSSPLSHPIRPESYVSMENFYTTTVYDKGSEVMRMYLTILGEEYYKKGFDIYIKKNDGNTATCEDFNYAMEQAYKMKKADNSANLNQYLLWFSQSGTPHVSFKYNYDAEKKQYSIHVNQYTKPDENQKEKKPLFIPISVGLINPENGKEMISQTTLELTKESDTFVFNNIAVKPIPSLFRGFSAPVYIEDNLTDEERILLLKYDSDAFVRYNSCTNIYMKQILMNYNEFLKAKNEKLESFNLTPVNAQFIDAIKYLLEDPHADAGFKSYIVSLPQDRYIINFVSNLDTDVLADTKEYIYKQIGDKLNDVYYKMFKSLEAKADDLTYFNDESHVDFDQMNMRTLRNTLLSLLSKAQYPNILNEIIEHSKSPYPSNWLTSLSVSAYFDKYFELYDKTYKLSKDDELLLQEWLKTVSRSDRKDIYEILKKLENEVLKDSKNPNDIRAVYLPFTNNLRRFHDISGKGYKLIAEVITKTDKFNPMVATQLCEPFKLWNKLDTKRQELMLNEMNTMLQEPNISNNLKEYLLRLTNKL

Leucine aminopeptidase = target: T6, Leucine aminopeptidase (Plasmodium falciparum 3D7, UniProt Q8IL11); assay: P. falciparum M17LAP inhibitors, primary screen, biochemical, fluorogenic H-Leu-NHMec substrate, 1536-well (AID 1619); format: functional
T6 sequence (Q8IL11 whole entry): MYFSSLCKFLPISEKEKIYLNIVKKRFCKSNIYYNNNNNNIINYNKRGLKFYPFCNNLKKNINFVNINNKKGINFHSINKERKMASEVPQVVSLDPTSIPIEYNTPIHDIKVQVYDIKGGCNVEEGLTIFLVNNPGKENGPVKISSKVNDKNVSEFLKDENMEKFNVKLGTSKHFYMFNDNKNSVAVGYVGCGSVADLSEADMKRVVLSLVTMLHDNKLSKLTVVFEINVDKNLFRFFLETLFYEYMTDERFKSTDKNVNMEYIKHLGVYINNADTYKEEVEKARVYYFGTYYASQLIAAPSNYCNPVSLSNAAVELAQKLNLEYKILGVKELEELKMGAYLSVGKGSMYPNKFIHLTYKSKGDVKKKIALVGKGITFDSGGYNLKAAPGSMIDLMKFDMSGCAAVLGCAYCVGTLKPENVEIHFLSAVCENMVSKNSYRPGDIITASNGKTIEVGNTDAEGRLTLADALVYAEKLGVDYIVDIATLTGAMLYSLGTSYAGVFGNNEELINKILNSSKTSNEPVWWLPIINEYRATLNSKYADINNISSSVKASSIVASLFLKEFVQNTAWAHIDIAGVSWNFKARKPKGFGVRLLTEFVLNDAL

T3 sequence (Q9UBE0 whole entry): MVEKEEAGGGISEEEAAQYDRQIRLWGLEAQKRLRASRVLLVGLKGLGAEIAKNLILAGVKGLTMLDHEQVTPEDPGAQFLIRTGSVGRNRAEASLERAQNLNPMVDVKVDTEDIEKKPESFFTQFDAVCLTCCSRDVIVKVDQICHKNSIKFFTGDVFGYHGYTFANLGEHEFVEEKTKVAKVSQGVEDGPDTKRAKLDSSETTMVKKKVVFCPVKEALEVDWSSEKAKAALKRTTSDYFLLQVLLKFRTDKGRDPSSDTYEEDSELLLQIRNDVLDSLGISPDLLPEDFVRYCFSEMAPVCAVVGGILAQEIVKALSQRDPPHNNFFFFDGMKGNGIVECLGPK
T3 sequence (Q9UBT2 whole entry): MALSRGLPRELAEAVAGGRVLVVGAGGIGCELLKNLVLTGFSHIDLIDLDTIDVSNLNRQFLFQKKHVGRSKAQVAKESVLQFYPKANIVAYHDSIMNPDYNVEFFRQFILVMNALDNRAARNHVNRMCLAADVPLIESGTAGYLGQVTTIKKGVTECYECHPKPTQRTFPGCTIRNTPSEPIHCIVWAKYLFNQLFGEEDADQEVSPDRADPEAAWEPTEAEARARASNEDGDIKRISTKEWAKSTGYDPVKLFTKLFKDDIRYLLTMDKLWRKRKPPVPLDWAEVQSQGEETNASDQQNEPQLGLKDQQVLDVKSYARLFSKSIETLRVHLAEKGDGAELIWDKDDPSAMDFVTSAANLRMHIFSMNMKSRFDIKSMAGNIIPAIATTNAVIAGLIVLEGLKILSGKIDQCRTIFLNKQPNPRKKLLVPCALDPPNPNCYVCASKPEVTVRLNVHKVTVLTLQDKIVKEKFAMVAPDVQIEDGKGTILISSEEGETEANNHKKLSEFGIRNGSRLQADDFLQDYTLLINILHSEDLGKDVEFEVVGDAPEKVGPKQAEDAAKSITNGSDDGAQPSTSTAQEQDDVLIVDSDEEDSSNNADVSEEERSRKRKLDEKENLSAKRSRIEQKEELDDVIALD
Peroxisome proliferator-activated receptor gamma/Nuclear receptor corepressor 2, sequence (P37231 whole entry): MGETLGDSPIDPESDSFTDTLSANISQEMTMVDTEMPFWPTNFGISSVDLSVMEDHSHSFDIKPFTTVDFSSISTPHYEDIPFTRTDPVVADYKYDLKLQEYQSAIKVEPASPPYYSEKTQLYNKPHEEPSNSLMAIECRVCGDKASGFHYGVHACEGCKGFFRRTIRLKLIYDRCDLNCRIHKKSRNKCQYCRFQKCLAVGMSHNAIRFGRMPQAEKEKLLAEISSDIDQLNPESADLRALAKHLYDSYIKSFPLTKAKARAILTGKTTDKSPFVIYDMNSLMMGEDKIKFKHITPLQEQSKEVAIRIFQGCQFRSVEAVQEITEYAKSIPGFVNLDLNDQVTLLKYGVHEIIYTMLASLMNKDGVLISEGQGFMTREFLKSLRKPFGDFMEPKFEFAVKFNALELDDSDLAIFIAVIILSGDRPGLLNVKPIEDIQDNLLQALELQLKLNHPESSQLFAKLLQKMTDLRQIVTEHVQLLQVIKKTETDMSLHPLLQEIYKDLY
Peroxisome proliferator-activated receptor gamma/Nuclear receptor corepressor 2, sequence (Q9Y618 whole entry): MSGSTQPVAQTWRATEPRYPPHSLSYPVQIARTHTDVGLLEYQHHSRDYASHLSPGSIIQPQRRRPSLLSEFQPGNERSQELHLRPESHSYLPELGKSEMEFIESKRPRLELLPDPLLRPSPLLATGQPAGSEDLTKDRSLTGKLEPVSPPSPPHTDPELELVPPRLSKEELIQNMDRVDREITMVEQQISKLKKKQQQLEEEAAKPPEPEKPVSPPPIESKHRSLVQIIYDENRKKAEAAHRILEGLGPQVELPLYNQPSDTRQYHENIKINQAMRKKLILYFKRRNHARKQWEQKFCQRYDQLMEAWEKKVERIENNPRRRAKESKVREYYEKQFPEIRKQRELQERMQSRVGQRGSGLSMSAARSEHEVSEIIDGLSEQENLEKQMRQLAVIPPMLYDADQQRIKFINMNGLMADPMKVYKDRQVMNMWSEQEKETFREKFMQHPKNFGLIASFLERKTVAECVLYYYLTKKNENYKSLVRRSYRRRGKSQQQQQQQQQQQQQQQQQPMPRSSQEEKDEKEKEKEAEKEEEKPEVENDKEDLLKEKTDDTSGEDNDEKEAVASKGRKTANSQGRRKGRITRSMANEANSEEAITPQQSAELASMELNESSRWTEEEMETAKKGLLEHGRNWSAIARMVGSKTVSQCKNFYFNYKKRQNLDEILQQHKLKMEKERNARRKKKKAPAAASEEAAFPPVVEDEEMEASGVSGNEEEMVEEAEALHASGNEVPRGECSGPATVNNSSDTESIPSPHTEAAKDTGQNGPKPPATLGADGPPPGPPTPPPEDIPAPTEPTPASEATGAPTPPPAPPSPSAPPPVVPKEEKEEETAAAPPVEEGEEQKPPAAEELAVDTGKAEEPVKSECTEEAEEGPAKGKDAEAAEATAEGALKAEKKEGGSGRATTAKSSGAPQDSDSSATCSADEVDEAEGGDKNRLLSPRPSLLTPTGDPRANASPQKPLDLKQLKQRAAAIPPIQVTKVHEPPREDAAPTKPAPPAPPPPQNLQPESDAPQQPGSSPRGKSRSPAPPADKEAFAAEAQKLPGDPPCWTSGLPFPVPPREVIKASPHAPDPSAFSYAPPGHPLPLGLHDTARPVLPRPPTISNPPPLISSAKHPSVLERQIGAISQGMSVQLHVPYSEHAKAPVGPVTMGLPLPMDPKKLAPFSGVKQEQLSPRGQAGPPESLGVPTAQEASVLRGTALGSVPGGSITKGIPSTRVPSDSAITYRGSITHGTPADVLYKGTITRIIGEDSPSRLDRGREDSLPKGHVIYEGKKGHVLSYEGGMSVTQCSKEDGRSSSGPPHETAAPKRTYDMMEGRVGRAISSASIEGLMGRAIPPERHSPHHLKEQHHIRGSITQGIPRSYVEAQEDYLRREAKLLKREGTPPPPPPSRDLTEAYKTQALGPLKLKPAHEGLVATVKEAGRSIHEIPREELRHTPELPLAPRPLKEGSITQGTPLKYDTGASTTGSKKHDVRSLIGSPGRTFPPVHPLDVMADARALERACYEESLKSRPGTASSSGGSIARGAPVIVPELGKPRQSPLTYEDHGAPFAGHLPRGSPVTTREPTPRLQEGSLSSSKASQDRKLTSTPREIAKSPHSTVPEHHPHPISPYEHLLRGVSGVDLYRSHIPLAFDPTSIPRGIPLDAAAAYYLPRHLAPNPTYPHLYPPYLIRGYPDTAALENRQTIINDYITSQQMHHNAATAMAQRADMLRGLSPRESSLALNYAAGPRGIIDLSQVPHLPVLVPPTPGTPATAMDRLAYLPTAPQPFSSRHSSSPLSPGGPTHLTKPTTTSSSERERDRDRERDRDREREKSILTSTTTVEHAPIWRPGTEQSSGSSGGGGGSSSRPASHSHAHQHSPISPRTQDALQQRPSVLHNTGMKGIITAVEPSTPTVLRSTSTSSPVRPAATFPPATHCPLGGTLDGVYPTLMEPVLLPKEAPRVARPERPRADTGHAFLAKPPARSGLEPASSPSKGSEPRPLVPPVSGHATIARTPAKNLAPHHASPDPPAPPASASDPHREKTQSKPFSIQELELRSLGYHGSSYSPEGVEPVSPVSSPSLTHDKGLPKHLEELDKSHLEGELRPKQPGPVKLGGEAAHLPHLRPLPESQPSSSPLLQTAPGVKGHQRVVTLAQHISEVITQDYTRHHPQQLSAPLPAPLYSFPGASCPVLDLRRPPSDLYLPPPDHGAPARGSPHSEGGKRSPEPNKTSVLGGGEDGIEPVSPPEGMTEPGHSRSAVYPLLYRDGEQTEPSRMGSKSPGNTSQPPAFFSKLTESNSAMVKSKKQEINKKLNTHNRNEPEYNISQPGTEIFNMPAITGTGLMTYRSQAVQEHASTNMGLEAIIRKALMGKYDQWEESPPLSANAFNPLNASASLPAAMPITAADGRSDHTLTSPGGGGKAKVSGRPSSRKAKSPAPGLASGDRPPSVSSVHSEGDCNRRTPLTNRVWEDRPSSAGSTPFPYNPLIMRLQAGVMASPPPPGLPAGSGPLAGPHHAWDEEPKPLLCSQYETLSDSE
Photoreceptor-specific nuclear receptor, sequence (Q9Y5X4 whole entry): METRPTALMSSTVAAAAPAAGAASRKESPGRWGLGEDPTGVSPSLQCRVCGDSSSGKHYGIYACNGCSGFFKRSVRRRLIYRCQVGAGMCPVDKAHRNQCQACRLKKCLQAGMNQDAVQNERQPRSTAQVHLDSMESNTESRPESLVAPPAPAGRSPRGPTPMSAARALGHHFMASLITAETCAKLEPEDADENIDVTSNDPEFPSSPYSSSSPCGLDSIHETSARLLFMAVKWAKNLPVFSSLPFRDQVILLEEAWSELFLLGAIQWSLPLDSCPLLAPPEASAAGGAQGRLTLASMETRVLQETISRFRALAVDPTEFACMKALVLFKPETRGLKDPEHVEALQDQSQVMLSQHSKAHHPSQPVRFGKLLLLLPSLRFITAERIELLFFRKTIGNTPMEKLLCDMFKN
Melanin-concentrating hormone receptor 1, sequence (Q99705 whole entry): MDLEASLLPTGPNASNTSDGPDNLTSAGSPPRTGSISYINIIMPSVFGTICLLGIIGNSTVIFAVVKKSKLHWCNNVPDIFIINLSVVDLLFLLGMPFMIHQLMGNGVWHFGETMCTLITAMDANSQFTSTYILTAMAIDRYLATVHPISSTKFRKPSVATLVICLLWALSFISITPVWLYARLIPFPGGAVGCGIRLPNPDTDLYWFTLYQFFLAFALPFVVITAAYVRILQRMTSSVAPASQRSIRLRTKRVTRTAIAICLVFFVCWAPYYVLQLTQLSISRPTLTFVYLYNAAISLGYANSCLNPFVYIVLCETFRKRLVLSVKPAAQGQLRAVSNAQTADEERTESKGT

SMILES: COc1ccc(Oc2c(C3CC3)cnn(-c3ccc(C)cc3)c2=O)cc1
- IC50 [2]: 5.4 µM (active)

SMILES: CC1NC(=O)NC1CCCCCC(=O)NCCc1ccccc1 (stereo not given)
- EC50 (cells [3]): > 29.9 µM (inactive)
- IC50 [4]: 3.01 µM (active)
- EC50 [5]: 1.93 µM (active)
- IC50 (cells [6]): > 29.9 µM (inactive)
- IC50 [7]: 1.06 µM (active)
- IC50 [8]: 6.36 µM (active)

SMILES: O=c1c(C(c2ccccc2)c2c(O)sc3ccccc3c2=O)c(O)sc2ccccc12
- IC50 (SUMO-activating enzyme [9]): 4.11 µM (active)
- IC50 [10]: 4.29 µM (not active)
- IC50 (SUMO-activating enzyme [11]): 11.3 µM (active)

SMILES: CC(C)N(Cc1nc(-c2ccc(Cl)cc2)no1)C(=O)CCCN1C(=O)c2ccccc2C1=O
- EC50 [12]: 3.89 µM (active)

Second part, the compound after the results:

- EC50 [1]: 5.96 µM (active)
SMILES: Cc1ccc(N2CCN(C(=O)c3ccccc3F)CC2)c(C)c1

- IC50 (Aminopeptidase N): 61.6 µM (active)
- IC50 (Leucine aminopeptidase): 28.3 µM (active)
SMILES: O=C(CSc1n[nH]c2c3ccccc3nc-2n1)Nc1ccc(S(=O)(=O)Nc2ncccn2)cc1

- IC50 (Aminopeptidase N): 39 µM (active)
SMILES: COc1ccc(NC(=O)[C@@H](NC(=O)c2ccccc2)C(C)C)cc1S(=O)(=O)N1CCCCC1
